The source of these data is article PMC4546402, “Structural Model of the Bilitranslocase Transmembrane Domain Supported by NMR and FRET Data” (PLoS ONE, 2015).

Residues, ends and D or L forms follow the SMILES beside them. No end group written: not given here.

One assay addresses TM3:TM3. Description: FRET titration of Atto488/Atto594-labelled peptides in SDS micelles, TM3:TM3 pair. The settings on record: Atto488 donor/Atto594 acceptor, SDS micelle, TM3 with TM3, ratio of donor emission at 523 nm to acceptor emission at 627 nm, read-out: dissociation constant Kd. The assay is classed as binding.
The next assay has as its system bilitranslocase (BTL). The settings on record: ref [10]; cited from earlier work.
Another assay addresses TM2:TM2. The experiment in a line: FRET titration of Atto488/Atto594-labelled peptides in SDS micelles, TM2:TM2 pair. The assay is classed as binding. The settings on record: Atto488 donor/Atto594 acceptor, SDS micelle, TM2 with TM2, ratio of donor emission at 523 nm to acceptor emission at 627 nm, read-out: dissociation constant Kd.

Take GSVQCAGLISLPIAIEFTYKKKK [TM3:TM3]: the Kd at TM3:TM3 stood at 191 µM.
`O=C(O)c1cccnc1` [nicotinic acid]: in the assay on bilitranslocase (BTL), the “allosteric effect on BTL” value is on record as “positive allosteric effectors, inducing the BTL into its high-affinity state”.
Consider `C=CC1=C(C)/C(=C/c2[nH]c(Cc3[nH]c(/C=C4\NC(=O)C(C)=C4C=C)c(C)c3CCC(=O)O)c(CCC(=O)O)c2C)NC1=O` [bilirubin], for which, in the assay on bilitranslocase (BTL), the “allosteric effect on BTL” value is reported as “positive allosteric effectors, inducing the BTL into its high-affinity state” and the “effect on conversion between the two metastable BTL conformers” value is on record as “accelerated”.
As to `CC[C@H](C)[C@H](NC(=O)[C@H](C)NC(=O)[C@H](CCCCN)NC(=O)[C@H](CS)NC(=O)[C@H](CC(C)C)NC(=O)CNC(=O)[C@H](CO)NC(=O)[C@@H](NC(=O)CNC(=O)[C@H](C)NC(=O)[C@H](CO)NC(=O)[C@H](Cc1ccccc1)NC(=O)[C@@H]1CCCN1C(=O)[C@H](CO)NC(=O)[C@H](CCC(N)=O)NC(=O)[C@H](CC(C)C)NC(=O)[C@@H](NC(=O)[C@H](C)NC(=O)[C@@H](NC(=O)[C@H](Cc1ccccc1)NC(=O)[C@H](CC(C)C)NC(=O)[C@H](CS)NC(=O)[C@H](Cc1ccccc1)NC(=O)[C@H](CO)NC(=O)[C@@H](N)CO)C(C)C)[C@@H](C)O)C(C)C)C(=O)N[C@@H](CC(C)C)C(=O)N[C@@H](CC(C)C)C(=O)N[C@@H](CCCCN)C(=O)N[C@@H](CCCCN)C(=O)N[C@@H](CCCCN)C(=O)N[C@@H](CCCCN)C(=O)O` [TM2:TM2] (H-SSFCLFVATLQSPFSAGVSGLCKAILLKKKK-OH), at TM2:TM2, the Kd was found to be 71.9 µM.

What is called Kd is the equilibrium constant for the complex coming apart.
